Laboratory results published in ChEMBL document CHEMBL1201862, “PubChem BioAssay data set” (2004).
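A five-concentration, 48-hour dose response in 96-well plates underlies each endpoint, interpolated linearly between surrounding concentrations. The concentration for 50% growth inhibition is given as GI50.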 Calls of active or inactive are those of the source. Rule as the data show it: active = GI50 up to about 1.1 µM and inactive = higher.

Columns and labels:
Experiment in all cases: NCI anticancer screen, dose series, 48 h
UACC-257 = system: UACC-257
CAKI-1 = system: CAKI-1
SW-620 = system: SW-620
OVCAR-8 = system: OVCAR-8
KM12 = system: KM12
T47D = system: T47D
HCC 2998 = system: HCC 2998
PC-3 = system: PC-3
SF-539 = system: SF-539
OVCAR-3 = system: OVCAR-3
Malme-3M = system: Malme-3M
SF-295 = system: SF-295
SK-MEL-2 = system: SK-MEL-2
A498 = system: A498
SNB-19 = system: SNB-19
RXF 393 = system: RXF 393
U-251 = system: U-251
HCT-116 = system: HCT-116
MOLT-4 = system: MOLT-4
OVCAR-4 = system: OVCAR-4
IGROV-1 = system: IGROV-1
CCRF-CEM = system: CCRF-CEM
UO-31 = system: UO-31
M14 = system: M14
SN12C = system: SN12C
OVCAR-5 = system: OVCAR-5
HCT-15 = system: HCT-15
NCI-H460 = system: NCI-H460
SK-MEL-28 = system: SK-MEL-28
NCI/ADR-RES = system: NCI/ADR-RES
NCI-H522 = system: NCI-H522
HT-29 = system: HT-29
SK-MEL-5 = system: SK-MEL-5
TK-10 = system: TK-10
Hs-578T = system: Hs-578T
HL-60 = system: HL-60
LOX IMVI = system: LOX IMVI
MCF7 = system: MCF7
COLO 205 = system: COLO 205
NCI-H23 = system: NCI-H23
K562 = system: K562
SNB-75 = system: SNB-75
786-0 = system: 786-0
BT-549 = system: BT-549
MDA-MB-231 = system: MDA-MB-231
HOP-92 = system: HOP-92
MDA-N = system: MDA-N
A549 = system: A549
EKVX = system: EKVX
HOP-62 = system: HOP-62
SF-268 = system: SF-268
MDA-MB-435 = system: MDA-MB-435
SK-OV-3 = system: SK-OV-3
UACC-62 = system: UACC-62
ACHN = system: ACHN
NCI-H226 = system: NCI-H226
DU-145 = system: DU-145
RPMI-8226 = system: RPMI-8226

CCOc1ccc2nc3nc(O)nc(C)c3c(NCCCN(CC)CC)c2c1
GI50 (UACC-257): > 100 µM (inactive)
GI50 (CAKI-1): > 100 µM (inactive)
GI50 (SW-620): > 100 µM (inactive)
GI50 (OVCAR-8): > 100 µM (inactive)
GI50 (KM12): > 100 µM (inactive)
GI50 (T47D): > 100 µM (inactive)
GI50 (HCC 2998): > 100 µM (inactive)
GI50 (PC-3): > 100 µM (inactive)
GI50 (SF-539): > 100 µM (inactive)
GI50 (OVCAR-3): > 100 µM (inactive)
GI50 (Malme-3M): > 100 µM (inactive)
GI50 (SF-295): > 100 µM (inactive)
GI50 (SK-MEL-2): > 100 µM (inactive)
GI50 (A498): > 100 µM (inactive)
GI50 (SNB-19): > 100 µM (inactive)
GI50 (RXF 393): > 100 µM (inactive)
GI50 (U-251): > 100 µM (inactive)
GI50 (HCT-116): > 100 µM (inactive)
GI50 (MOLT-4): > 100 µM (inactive)
GI50 (OVCAR-4): > 100 µM (inactive)
GI50 (IGROV-1): > 100 µM (inactive)
GI50 (CCRF-CEM): > 100 µM (inactive)
GI50 (UO-31): > 100 µM (inactive)
GI50 (M14): > 100 µM (inactive)
GI50 (SN12C): > 100 µM (inactive)
GI50 (OVCAR-5): > 100 µM (inactive)
GI50 (HCT-15): > 100 µM
GI50 (NCI-H460): > 100 µM (inactive)
GI50 (SK-MEL-28): > 100 µM (inactive)
GI50 (NCI/ADR-RES): > 100 µM (inactive)
GI50 (NCI-H522): > 100 µM (inactive)
GI50 (HT-29): > 100 µM (inactive)
GI50 (SK-MEL-5): > 100 µM (inactive)
GI50 (TK-10): > 100 µM (inactive)
GI50 (Hs-578T): > 100 µM (inactive)
GI50 (HL-60): > 100 µM (inactive)
GI50 (LOX IMVI): > 100 µM (inactive)
GI50 (MCF7): > 100 µM (inactive)
GI50 (COLO 205): > 100 µM (inactive)
GI50 (NCI-H23): > 100 µM (inactive)
GI50 (K562): > 100 µM (inactive)
GI50 (SNB-75): > 100 µM (inactive)
GI50 (786-0): > 100 µM (inactive)
GI50 (BT-549): > 100 µM (inactive)
GI50 (MDA-MB-231): > 100 µM (inactive)
GI50 (HOP-92): > 100 µM (inactive)
GI50 (MDA-N): > 100 µM (inactive)
GI50 (A549): > 100 µM (inactive)
GI50 (EKVX): > 100 µM (inactive)
GI50 (HOP-62): > 100 µM (inactive)
GI50 (SF-268): > 100 µM (inactive)
GI50 (MDA-MB-435): > 100 µM (inactive)
GI50 (SK-OV-3): > 100 µM (inactive)
GI50 (UACC-62): > 100 µM (inactive)
GI50 (ACHN): > 100 µM (inactive)
GI50 (NCI-H226): > 100 µM (inactive)
GI50 (DU-145): > 100 µM (inactive)

COc1ccc2c(c1)nc1n2C(N)=Nc2ccccc2S1
GI50 (UACC-257): 32.5 µM (inactive)
GI50 (CAKI-1): > 100 µM (inactive)
GI50 (SW-620): 28.5 µM (inactive)
GI50 (OVCAR-8): 18.4 µM (inactive)
GI50 (KM12): 15.4 µM (inactive)
GI50 (T47D): 20.8 µM (inactive)
GI50 (HCC 2998): 31.8 µM (inactive)
GI50 (PC-3): 16.5 µM (inactive)
GI50 (SF-539): 33.4 µM (inactive)
GI50 (OVCAR-3): 5.55 µM (inactive)
GI50 (Malme-3M): 62.2 µM (inactive)
GI50 (SF-295): 44.2 µM (inactive)
GI50 (SK-MEL-2): > 100 µM (inactive)
GI50 (A498): 37.1 µM (inactive)
GI50 (RPMI-8226): 8.73 µM (inactive)
GI50 (SNB-19): 39.3 µM (inactive)
GI50 (RXF 393): 30 µM (inactive)
GI50 (U-251): 18.8 µM (inactive)
GI50 (HCT-116): 5.3 µM (inactive)
GI50 (MOLT-4): 3.69 µM (inactive)
GI50 (OVCAR-4): 34.4 µM (inactive)
GI50 (IGROV-1): 3.75 µM (inactive)
GI50 (CCRF-CEM): 2.55 µM (inactive)
GI50 (UO-31): 26.4 µM (inactive)
GI50 (M14): 10.6 µM (inactive)
GI50 (SN12C): 44.6 µM (inactive)
GI50 (OVCAR-5): 36.6 µM (inactive)
GI50 (HCT-15): 35.4 µM
GI50 (NCI-H460): 12.8 µM (inactive)
GI50 (SK-MEL-28): > 80.5 µM (inactive)
GI50 (NCI/ADR-RES): 35.2 µM (inactive)
GI50 (NCI-H522): 16.6 µM (inactive)
GI50 (HT-29): 17.7 µM (inactive)
GI50 (SK-MEL-5): 7.45 µM (inactive)
GI50 (TK-10): > 100 µM (inactive)
GI50 (Hs-578T): 61 µM (inactive)
GI50 (HL-60): 2.64 µM (inactive)
GI50 (LOX IMVI): 11.8 µM (inactive)
GI50 (MCF7): 11.3 µM (inactive)
GI50 (COLO 205): 6.08 µM (inactive)
GI50 (NCI-H23): 40.6 µM (inactive)
GI50 (K562): 4.91 µM (inactive)
GI50 (SNB-75): > 42.9 µM (inactive)
GI50 (786-0): 9.68 µM (inactive)
GI50 (BT-549): 48.2 µM (inactive)
GI50 (MDA-MB-231): 52.5 µM (inactive)
GI50 (HOP-92): 3.79 µM (inactive)
GI50 (MDA-N): 16.9 µM (inactive)
GI50 (A549): 29.7 µM (inactive)
GI50 (EKVX): 28.5 µM (inactive)
GI50 (HOP-62): 53.1 µM (inactive)
GI50 (SF-268): 16.7 µM (inactive)
GI50 (MDA-MB-435): 32.4 µM (inactive)
GI50 (SK-OV-3): 67 µM (inactive)
GI50 (UACC-62): 21 µM (inactive)
GI50 (ACHN): 29.6 µM (inactive)
GI50 (NCI-H226): 11.6 µM (inactive)
GI50 (DU-145): 35.5 µM (inactive)
